Data as given in PubChem BioAssay AID2423 (Broad Institute, 2010).
Records with an inconclusive call do not appear. Active and inactive are the calls of the source. The rule behind the calls is not given here.

Each compound was assayed on C. albicans CaCi-8 + fluconazole, Alamar Blue growth, 48 h (assay: resistant C. albicans growth inhibition with fluconazole, dose response, CaCi-8 strain, Alamar Blue fluorescence (AID 2423)).

Compound	EC50
Cc1ccc(C(=O)c2coc3c2C(=O)C(=O)c2ccccc2-3)cc1	0.146 µM
O=C(N/N=C/c1c(O)ccc2ccccc12)c1cccnc1	1.43 µM
c1ccc(CSc2nnc(-c3cccs3)n2Cc2ccco2)cc1	4.72 µM
C#CC[N+](C)(C)CCCCCCCCCCCC	8.93 µM
CCOC(=O)N=Nc1c2ccccc2c2nc3no[nH]c3nc12	> 15 µM (inactive)
CC1(C)C(O)=C(c2nc3ccccc3[nH]2)C(=N)N1c1ccccc1	9.82 µM
CCOC(=O)COc1ccc(S(=O)(=O)N2CCN(c3ccccc3F)CC2)cc1	> 15 µM (inactive)
COc1ccc(C(=O)NCCN2CCOCC2)c(OC)c1OC	> 15 µM (inactive)
CNC(=S)N/N=C/c1ccc(-c2ccc(Cl)c([N+](=O)[O-])c2)o1	1.94 µM
O=C(CSc1cccc[n+]1[O-])CSc1cccc[n+]1[O-]	13.4 µM
Cc1ccc(-n2c(O)c(C=Nc3ccccc3-c3n[nH]c(=S)[nH]c3=O)c3ccccc3c2=O)cc1C	0.496 µM
CCOC(=O)c1c(-c2ccccc2Cl)cn2ccccc12	2.12 µM
Cc1c(OCC(=O)NCC(O)c2ccccc2)ccc2c(-c3ccccc3)cc(=O)oc12 (configuration not stated)	1.26 µM
Cc1ccsc1C(=O)OCC(=O)Nc1sccc1C(N)=O	0.866 µM
CCN1/C(=C\c2ccc3cc(C)ccc3[n+]2CC)Sc2cc(C)c(C)cc21	< 0.12 µM
CCn1c(=O)c(C(=O)NCc2cccnc2)c(O)c2ccccc21	9.52 µM
O=C(Oc1cc2oc(=O)c3c(c2cc1Cl)CCCC3)c1cccs1	0.653 µM
O=[N+]([O-])c1c(C(Cl)Cl)nn(-c2ccc(Cl)cc2)c1N1CCCCC1	0.441 µM
COc1cccc(N=Nc2ccc3cccnc3c2O)c1	0.43 µM
Cc1cc(N2C(=O)C(O)=C(C(=O)c3cc4ccccc4o3)C2c2cccs2)no1 (configuration not stated)	4.08 µM
CCCCC(=O)NC(c1ccc(N(CC)CC)cc1)c1ccc2cccnc2c1O (configuration not stated)	0.468 µM
C/C(=N\N1C(=O)CSC1=S)c1ccc(Br)cc1	11.9 µM
COC(=O)N/N=C/c1ccc(-c2cc(Cl)cc(Cl)c2)o1	0.929 µM

Compound	EC50
O=C(Cc1cnn(-c2ccccc2)c1)c1ccc(O)c(O)c1O	8.4 µM
Oc1ccc(CN2CCC(Cc3ccccc3)CC2)c2cccnc12	1.34 µM
O=C(c1cc2c(s1)-c1ccccc1OC2)N1CCC2(CC1)OCCO2	2 µM
O=C(OCn1ncc(Cl)c(Cl)c1=O)c1ccc(F)cc1	> 16 µM (inactive)
Cc1ccccc1C(=O)O/N=C/c1c(N2CCOCC2)n(C)c2ccccc12	0.593 µM
COc1ccc(OC)c2[nH]c(C(=O)N/N=C/c3ccccc3O)cc12	0.914 µM
CCOc1ccccc1C1C2=C(COC2=O)Nc2cc3c(cc21)OCO3 (configuration not stated)	> 16 µM (inactive)
CCn1c(NC(=O)c2cccs2)nc2ccccc21	1.28 µM
C(#Cc1ccccc1)C[N+]1(CC#Cc2ccccc2)CCCCC1	10.5 µM
O=[N+]([O-])c1ccc(C2[C@H]3C(c4ccccc4)=NC4(CCCC4)N23)cc1 (some centres not stated)	> 15 µM (inactive)
O=C(COc1ccc(F)cc1)Nc1nc(-c2ccccn2)cs1	2.23 µM
CC(=O)N1CCC(=NNC(=O)c2cc3ccccc3cc2O)CC1	11.9 µM
COc1cccc(C(NC(C)=O)c2ccc3cccnc3c2O)c1 (configuration not stated)	1.73 µM
CCOc1ccc(-c2ccc(NS(=O)(=O)c3ccc([N+](=O)[O-])cc3)cc2)nn1	2.65 µM
CC(=O)Oc1c(-c2ccc(Br)o2)oc2ccccc2c1=O	4.2 µM
NC(=O)c1c(NC(=O)c2ccncc2)sc2c1CCCC2	3.45 µM
O=C1C(Nc2ccccc2)=C/C(=N/S(=O)(=O)c2cccs2)c2ccccc21	3.35 µM
CCc1ccc(CNC(=O)CCC(=O)N2Cc3cccc(OC)c3Oc3ncccc32)cc1	> 16 µM (inactive)
Cc1cccc(C(=O)NC(=S)NNC(=O)Cc2ccccc2)c1	10.6 µM
CN1c2ccccc2N(C)C1(C)c1ccccc1	> 15 µM (inactive)
C=CCn1c(N)nc2ccccc21	2.72 µM
Cn1c(/C=N/Nc2nc3ccccc3[nH]2)nc2ccccc21	> 16 µM (inactive)
Cc1scc(C(=O)N/N=C/c2ccc([N+](=O)[O-])o2)c1C	0.884 µM

Compound	EC50
COc1ccc(-c2n(CC(=O)OC3CC(C)CCC3C(C)C)c3ccccc3[n+]2C)cc1 (configuration not stated)	0.365 µM
CCn1c(COc2ccc(=O)n(-c3ccccc3)n2)nnc1SCc1cccc(OC)c1	> 16 µM (inactive)
CCCC(=O)NC(c1ccco1)c1cc([N+](=O)[O-])c2cccnc2c1O (configuration not stated)	0.84 µM
CN(C)S(=O)(=O)Oc1cccc(C(=O)Nc2ccc(Cl)c(Cl)c2)c1	0.711 µM
Oc1c(Cl)cc(Cl)c(Cl)c1Cc1c(O)c(Cl)cc(Cl)c1Cl	1.73 µM
Nc1ncc(Br)cc1S(=O)(=O)Nc1cc(C(F)(F)F)cc(C(F)(F)F)c1	0.918 µM
Cc1nn(C)c(C)c1/C=C/C(=O)c1ccc(Cl)cc1Cl	1.64 µM
CN(C)c1ccc(NC(=O)C2C3C=CC(C3)C2C(=O)O)cc1 (configuration not stated)	> 16 µM (inactive)
C=CCn1c(=N)n(CC(=O)c2cccc([N+](=O)[O-])c2)c2ccccc21	> 16 µM (inactive)
COc1ccc(-c2nc(CN3CCN(c4cc(C)nc(C)c4)CC3)c(C)o2)c2ccccc12	2.49 µM
O=C(Nc1cccc2ccccc12)c1ccc([N+](=O)[O-])o1	0.726 µM
CCOc1ccc(Nc2nc(NCC3CCCO3)c3ccccc3n2)cc1 (configuration not stated)	1.98 µM
Oc1ccccc1C(Nc1nccs1)c1ccc2cccnc2c1O (configuration not stated)	2.73 µM
CC[n+]1c(/C=C/N(C)c2ccccc2)n(-c2ccccc2)c2ccc(-c3nc4ccccc4s3)cc21	1.2 µM
CN1CCN(C(c2ccc(C(F)(F)F)cc2)c2cc(Cl)c3cccnc3c2O)CC1 (configuration not stated)	0.787 µM
CCCS(=O)(=O)c1nnnn1-c1cccc(OC)c1	> 15 µM (inactive)
COc1ccc(C(=O)NC(=S)NNC(=O)c2ccccc2C)cc1	1.99 µM
Cc1nc(C)c(C(=O)N/N=C/c2cc(Br)ccc2O)s1	2.12 µM
CCc1cc(-c2n[nH]c(=S)n2-c2ccccc2C)cs1	0.415 µM
CC(C)(C)C(=O)NC(=S)NNC(=O)c1ccc(-c2ccccc2)cc1	< 0.12 µM
O=C(CCc1ccccc1)NNC(=S)NC(=O)c1ccc(Cl)cc1	1.99 µM
Cn1c(=O)cc(OCCCC(=O)Nc2cccnc2)c2ccccc21	> 16 µM (inactive)
O=C(NNC(=O)c1ccccc1O)c1ccc(-c2ccc([N+](=O)[O-])cc2)o1	> 15 µM (inactive)

Compound	EC50
O=C(CCl)N1c2ccccc2CCc2ccccc21	1.01 µM
CCn1c(C)nc2cc(C(=O)N/N=C/c3cccc(OC)c3O)ccc21	> 16 µM (inactive)
COc1ccc(-n2cccc2/C=C2\C(=N)N3N=C(C(C)C)SC3=NC2=O)cc1	16.3 µM
COc1ccc(-c2cc(N)n(S(=O)(=O)c3c(F)c(F)c(F)c(F)c3F)n2)cc1OC	> 16 µM (inactive)
COc1cccc(/C=N/NC(=O)c2c(C)nc3ccc(Cl)cn23)c1O	1.71 µM
COc1cccc(C(=O)NNC(=O)c2ccc3ccccc3c2O)c1	9.44 µM
O=C(Nc1sc2c(c1C(=O)c1ccc(Cl)cc1)CCCC2)c1cccnc1	0.615 µM
O=C(N/N=C/c1c(O)ccc2ccccc12)c1cccc(C(F)(F)F)c1	0.242 µM
CCCc1cc(C(=O)Nc2sc3c(c2C#N)CCC3)no1	> 15 µM (inactive)
Cc1cc(NCCCn2ccnc2)n2ncc(-c3ccc(Cl)cc3)c2n1	1.31 µM
CCOc1ccccc1C(=O)N/N=C/c1ccoc1	2.18 µM
CCCCC(=O)NC(=S)Nc1cccc(NC(=O)c2ccco2)c1	1.23 µM
COc1ccc(C2C(C(=O)c3cccs3)=C(O)C(=O)N2c2nncs2)cc1 (configuration not stated)	15.2 µM
Cc1ccc(C)c(/C=C/C(=O)c2ccccc(=O)c2O)c1	1.99 µM
O=C1c2ccccc2NC(c2cnc3ccccc3n2)N1O (configuration not stated)	> 16 µM (inactive)
CC12CCC(C(=O)Nc3ncc([N+](=O)[O-])s3)(OC1=O)C2(C)C (configuration not stated)	> 16 µM (inactive)
Oc1c(CN2CCc3ccccc3C2)cc(Cl)c2cccnc12	0.849 µM
CC1(C)CC(N2CCN(Cc3ccccc3)CC2)=CC(=[N+]2CCCCC2)C1	3.35 µM
COc1cccc(C(=O)Oc2c(CN3CCOCC3)cc(Cl)c3cccnc23)c1	1.95 µM
Oc1c(CN2CCOCC2)cc(COCc2ccccc2)c2cccnc12	0.963 µM
CCc1ccc(OCC(=O)NNC(=S)NC(=O)C2CC2)c(Br)c1	1.19 µM
O=C(NC1CCCCC1)C(c1ccc2ncccc2c1)N(Cc1ccc(F)cc1)C(=O)c1ccc2c(c1)OCCO2 (configuration not stated)	> 15 µM (inactive)
O=[N+]([O-])c1cc(Br)c(O)c(/C=N/Nc2nnnn2-c2cccc3ccccc23)c1	> 15 µM (inactive)

Compound	EC50
O=C(Nc1ccc(OCc2ccccc2Cl)cc1)c1cccnc1	3.71 µM
CCCCC(=O)NC(c1ccc(N(C)C)cc1)c1ccc2cccnc2c1O (configuration not stated)	0.707 µM
O=S1(=O)N=C(Nc2ccc(N3CCOCC3)cc2)c2ccccc21	> 16 µM (inactive)
NC(=O)c1c(NC(=O)c2ccccc2F)sc2c1CCCC2	2.01 µM
O=C(NNC1=C(C(=O)C(F)(F)F)CCC1)c1cccc(Cl)c1	1.96 µM
Clc1ccc(CONc2ncnc3nonc23)c(Cl)c1	0.328 µM
CCN1CCN(C(c2cccnc2)c2cc(Cl)c3cccnc3c2O)CC1 (configuration not stated)	0.978 µM
Cc1cc(=O)oc2cc(Oc3ccc([N+](=O)[O-])cc3[N+](=O)[O-])ccc12	0.652 µM
Cc1onc(C(=O)Nc2sc3c(c2C#N)CCCC3)c1[N+](=O)[O-]	0.989 µM
C/C(=N\O)c1cc(Cl)cc(Cl)c1O	3.66 µM
COc1ccc(-c2csc(-c3ccccc3)n2)c(OC)c1	3.81 µM
Cc1ccc2nc(N3C(=O)C(O)=C(C(=O)c4ccco4)C3c3ccc(C)o3)sc2c1 (configuration not stated)	0.131 µM
CCN(CC)C(=O)/C(=C/c1ccc2c(c1)OCO2)NC(=O)c1ccc(Br)cc1	1.2 µM
Cc1cc(NC(=O)c2cccc(Oc3ccccc3)c2)n[nH]1	1.57 µM
O=C(N/N=C(\c1ccccc1)c1ccccn1)c1cccc([N+](=O)[O-])c1	5.31 µM
Cc1cc(O)ccc1NC(=S)NC(=O)c1cncc(Br)c1	0.727 µM
O=C(CCS(=O)(=O)Cc1ccccc1)Nc1nnc(C(F)(F)F)s1	0.746 µM
O=C(Nc1nnc(-c2ccco2)o1)c1ccc(Cl)cc1	1.16 µM
Cc1ccc2nc(/C(C#N)=C\c3ccc(OC(=O)c4cccs4)cc3)[nH]c2c1	0.528 µM
COc1ccccc1-n1c(C)cc(SC)c(C(C)=O)c1=S	> 15 µM (inactive)
